Data published in US20230013336A1, “SYNECHOCOCCUS ELONGATUS MUTANTS, VARIANTS AND USES THEREOF TO PRODUCE AN ESSENTIAL AMINO ACID” (Purdue Research Foundation, priority 2021, published 2023).

System: PCC 11801
Assay: MMS mutagenesis kill rate
Assay type: cell-based, Synechococcus elongatus sp. PCC 11801
Conditions: 1% (v/v) MMS for 90 seconds, quenched with 5% sodium thiosulfate
Experimental: Random mutagenesis was performed by modifying a previously described protocol (Deshpande et al. (2020), infra) with methylmethanesulfonate (MMS) and ultra-violet (UV) irradiation as the mutagens. Cells were prepared for random mutagenesis by pelleting exponentially growing cultures (OD ˜0.6-1) of PCC 11801 and resuspending in 1 mL of fresh BG-11M media.
For MMS mutagenesis, 1% (v/v) MMS (Sigma-Aldrich, St. Louis, Mo.) was added for 90 seconds, and the reaction was quenched by the addition of 5% (w/w) sodium thiosulfate solution to yield a ˜85-95% kill rate. For UV mutagenesis, the culture was subjected to 90 seconds of UV light to yield a kill rate of ˜90%.
The mutagenized cultures were incubated at 38° C. overnight in the dark before selection. To select for overproducers, the phenylalanine (Phe) analog 3-(2-thienyl)-dl-alanine (Sigma-Aldrich, St. Louis, Mo.) was applied to BG-11M agar plates in concentrations ranging from 0.5-2 mg/ml. The wild-type and mutagenized cultures were diluted and spread on BG-11M (to test kill rate) and BG-11M analog-containing plates, and were incubated at 38° C. until colonies appeared. Colonies (i.e. variant Synechococcus elongatus sp. strains) that successfully grew on analog selection plates were picked (e.g., selected) and re-streaked on selective plates for at least three rounds to enable complete segregation of mutations.

COS(C)(=O)=O [MMS, methylmethanesulfonate]
kill rate: 85-95%
